# System: not listed separately
# Assay: pKa was determined
# Type: physicochemical
row,Compound,pKa
1,NCCCC[C@H](N)C(=O)O [LYSINE],10.2

# Target: Prothrombin (Homo sapiens, UniProt P00734)
# Assay: Inhibition of human thrombin (in vitro)
row,Compound,Ki
1,CC1(C)CNc2c(cccc2S(=O)(=O)N[C@@H](Cc2nc3ccccc3s2)C(=O)N2CCC(CCCl)CC2)C1,93 nM
2,CC1(C)CNc2c(cccc2S(=O)(=O)N[C@@H](Cc2nc3ccccc3s2)C(=O)N2CCC(CCC(=O)O)CC2)C1,7830 nM
3,CC1(C)CNc2c(cccc2S(=O)(=O)N[C@@H](Cc2nc3ccccc3s2)C(=O)N2CCN(CCO)CC2)C1,350 nM
4,CC1(C)CNc2c(cccc2S(=O)(=O)N[C@@H](Cc2nc3ccccc3s2)C(=O)N2CCC(CCNC(=O)OC(C)(C)C)CC2)C1,52 nM
5,CCC1CCN(C(=O)[C@H](Cc2nc3ccccc3s2)NS(=O)(=O)c2cccc3c2NCC(C)(C)C3)CC1,240 nM
6,CC1(C)CNc2c(cccc2S(=O)(=O)N[C@@H](Cc2nc3ccccc3s2)C(=O)N2CCC(CCF)CC2)C1,26 nM

# Now from value to compound:
row,Ki,Compound
1,38300 nM,CN(C)CCC1CCN(C(=O)[C@H](Cc2nc3ccccc3s2)NS(=O)(=O)c2cccc3c2NCC(C)(C)C3)CC1
2,1180 nM,CC1(C)CNc2c(cccc2S(=O)(=O)N[C@@H](Cc2nc3ccccc3s2)C(=O)N2CCC(CCN)CC2)C1
3,1000 nM,CN(C)C(=O)NCCC1CCN(C(=O)[C@H](Cc2nc3ccccc3s2)NS(=O)(=O)c2cccc3c2NCC(C)(C)C3)CC1
4,654 nM,CC(=O)NCCC1CCN(C(=O)[C@H](Cc2nc3ccccc3s2)NS(=O)(=O)c2cccc3c2NCC(C)(C)C3)CC1
5,182 nM,CCCCNC(=O)NCCC1CCN(C(=O)[C@H](Cc2nc3ccccc3s2)NS(=O)(=O)c2cccc3c2NCC(C)(C)C3)CC1
6,119 nM,CNS(=O)(=O)NCCC1CCN(C(=O)[C@H](Cc2nc3ccccc3s2)NS(=O)(=O)c2cccc3c2NCC(C)(C)C3)CC1
7,79 nM,CC1(C)CNc2c(cccc2S(=O)(=O)N[C@@H](Cc2nc3ccccc3s2)C(=O)N2CCC(CCO)CC2)C1
8,65 nM,CCNC(=O)NCCC1CCN(C(=O)[C@H](Cc2nc3ccccc3s2)NS(=O)(=O)c2cccc3c2NCC(C)(C)C3)CC1
9,56 nM,COC(=O)NCCC1CCN(C(=O)[C@H](Cc2nc3ccccc3s2)NS(=O)(=O)c2cccc3c2NCC(C)(C)C3)CC1
10,38 nM,CNC(=O)OCCC1CCN(C(=O)[C@H](Cc2nc3ccccc3s2)NS(=O)(=O)c2cccc3c2NCC(C)(C)C3)CC1
11,24 nM,CNC(=O)NCCC1CCN(C(=O)[C@H](Cc2nc3ccccc3s2)NS(=O)(=O)c2cccc3c2NCC(C)(C)C3)CC1

# From ChEMBL document CHEMBL1132048, “Optimisation of the P2 pharmacophore in a series of thrombin inhibitors: ion-dipole interactions with lysine 60G” (Bioorg Med Chem Lett, 1999)
